{"source": "patent US20060293351A1", "about": "“Promotion of wound healing” (priority 1999, published 2006)", "key": {"[1]": {"test_system": "collagen α1(I) gene", "assay": "Northern blot of collagen α1(I) gene in urethral fibroblasts", "format": "cell-based, rat", "conditions": "Northern blot analysis", "protocol": "Next, total RNA was isolated using the guanidinium-thiocyanate-phenol technique (Chomczynski, P. and N. Sacchi, Anal. Biochem., 162:156, 1987). RNA was subjected to 1% agarose denaturing gel electrophoresis, followed by blotting onto a nylon filter (GeneScreen Plus, New England Nuclear, Boston, Mass., USA). The probe for the collagen α1(I) gene was labeled using the random primer procedure with a commercial kit (Boehringer, Germany). Hybridization was performed overnight at 40° C. in a solution containing 10% dextran sulfate, 1% SDS, 1 M NaCl, 40% formamide and […] denatured herring sperm DNA. Hybridization was followed by two 30-minute washes in 2×SSC (1×SSC contains 0.15 M NaCl and 0.015 M sodium citrate), 1% SDS, and two 20 minute washes in 1×SSC, 0.1% SDS. The filters were exposed to X-ray film (Agfa-Curix) at −70° C., using intensifying screens."}, "[2]": {"test_system": "T50 bladder carcinoma bearing mice", "assay": "Wound healing in mice implanted with T50 bladder carcinoma tumors", "format": "in vivo, C3H mice", "conditions": "diet containing 10 mg/kg or 5 mg/kg, 3 days prior to and 2 weeks after cell injection", "protocol": "Similar visual results were obtained with mice implanted with T50 bladder carcinoma tumors (FIG. 4). C3H mice were divided into two groups of 6 mice each. The experimental group received a diet containing either 10 mg/kg or 5 mg/kg of Halofuginone 3 days prior to the injection of T50 bladder carcinoma cells and during 2 weeks after. […] The right side received 0.4*10^5 cells, and the left side received 2*10^5 cells. The experiment ended at day 17. FIG. 4 is a photograph of representative bladder carcinoma bearing mice which were untreated (top) or treated (bottom) with Halofuginone. […] Halofuginone was clearly able to promote wound healing in mice implanted with bladder carcinoma tumors."}}}
{"smiles": "O=C(CC1NCCC[C@H]1O)Cn1cnc2cc(Br)c(Cl)cc2c1=O", "note": "(some centres unmarked) [Halofuginone]", "values": [{"measurement": "expression of the collagen α1(I) gene", "setting": "[1]", "result": "specifically decreased the expression"}, {"measurement": "wound healing", "setting": "[2]", "result": "greater wound healing"}]}
